According to patent US8952024B2, “Herbicidal pyrimidone derivatives” (E I du Pont de Nemours and Company, priority 2009, dated 2015):

Legend:
Assay type in all cases: in vivo
Settings in all cases: Postemergence
[1] = system: Surinam grass (Brachiaria decumbens); assay: Test B pre-/postemergence plant response
Procedure, shortened: (§1)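 Steps: sow seed in loam–sand soil and spray preemergence, or grow plants in peat-based medium to 1–4 leaves (2–18 cm) and spray postemergence; formulation is non-phytotoxic solvent plus surfactant; hold in greenhouse 13–15 days; score visually vs controls, 0 = no effect, 100 = complete control.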

[2] = system: wheat (Triticum aestivum); assay: Test B pre-/postemergence plant response
Procedure, shortened: as §1

[3] = system: velvetleaf (Abutilon theophrasti); assay: Test B pre-/postemergence plant response
Procedure, shortened: as §1

[4] = system: blackgrass (Alopecurus myosuroides); assay: Test B pre-/postemergence plant response
Procedure, shortened: as §1

wild oat (Avena fatua) = assay: Test B pre-/postemergence plant response
Procedure, shortened: as §1

[5] = system: cocklebur (Xanthium strumarium); assay: Test B pre-/postemergence plant response
Procedure, shortened: as §1

kochia (Kochia scoparia) = assay: Test B pre-/postemergence plant response
Procedure, shortened: as §1

[6] = system: lambsquarters (Chenopodium album); assay: Test B pre-/postemergence plant response
Procedure, shortened: as §1

soybean (Glycine max) = assay: Test B pre-/postemergence plant response
Procedure, shortened: as §1

[7] = system: pigweed (Amaranthus retroflexus); assay: Test B pre-/postemergence plant response
Procedure, shortened: as §1

[8] = system: windgrass (Apera spica-venti); assay: Test B postemergence plant response
Procedure, shortened: (§2)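 Visual ratings from 0 (no effect) to 100 (complete control), made against controls 13–15 days after treatment, kept in a greenhouse. Compounds were applied postemergence to potted plants at the 1- to 4-leaf stage (2–18 cm).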

[9] = system: canarygrass (Phalaris minor); assay: Test B postemergence plant response
Procedure, shortened: as §2

[10] = system: chickweed (Stellaria media); assay: Test B postemergence plant response
Procedure, shortened: as §2

## COc1ccc(-n2c(-c3ccccc3)ncc(C(=O)C3=C(O)CCCC3=O)c2=O)cc1 [Compound 4, 5-[(2-hydroxy-6-oxo-cyclohexen-1-yl)carbonyl]-3-(4-methoxyphenyl)-2-phenyl-4(3H)-pyrimidinone]
[1]; 250 g ai/ha, scale 0 to 100
  Surinam Grass plant response rating: 90
[1]; Urochloa decumbens, post-emergence, 31 g ai/ha, scale 0 to 100 (0 no effect, 100 complete control), read-out: Plant response rating, Surinam Grass
  pest or weed control at 31 g/ha: 60%
[1]; Urochloa decumbens, post-emergence, 62 g ai/ha, scale 0 (no effect) to 100 (complete control), 13 to 15 days, read-out: Plant response rating, Surinam Grass
  pest or weed control at 62 g/ha: 70%
[1]; Urochloa decumbens, post-emergence, 125 g ai/ha, visual rating after 13 to 15 days, scale 0 (no effect) to 100 (complete control)
  pest or weed control at 125 g/ha: 75%
[2]; 250 g ai/ha, scale 0 to 100
  Wheat plant response rating: 70
[2]; Triticum aestivum, post-emergence, 31 g ai/ha, scale 0 to 100 (0 no effect, 100 complete control), read-out: Plant response rating, Wheat
  plant injury at 31 g/ha: 5%
[2]; Triticum aestivum, post-emergence, 62 g ai/ha, scale 0 (no effect) to 100 (complete control), 13 to 15 days, read-out: Plant response rating, Wheat
  plant injury at 62 g/ha: 5%
[2]; Triticum aestivum, post-emergence, 125 g ai/ha, visual rating after 13 to 15 days, scale 0 (no effect) to 100 (complete control)
  plant injury at 125 g/ha: 50%
[3]; Abutilon theophrasti, post-emergence, 360 h, 31 g ai/ha, scale 0 to 100 (0 no effect, 100 complete control), read-out: Plant response rating, Velvetleaf
  pest or weed control at 31 g/ha: 70%
[3]; Abutilon theophrasti, post-emergence, 360 h, 62 g ai/ha, scale 0 (no effect) to 100 (complete control), 13 to 15 days, read-out: Plant response rating, Velvetleaf
  pest or weed control at 62 g/ha: 75%
[3]; Abutilon theophrasti, post-emergence, 360 h, 125 g ai/ha, visual rating after 13 to 15 days, scale 0 (no effect) to 100 (complete control)
  pest or weed control at 125 g/ha: 90%
[3]; 250 g ai/ha, scale 0 to 100
  Velvetleaf plant response rating: 100
[4]; Alopecurus myosuroides, post-emergence, 360 h, 31 g ai/ha, scale 0 to 100 (0 no effect, 100 complete control), read-out: Plant response rating, Blackgrass
  pest or weed control at 31 g/ha: 10%
[4]; Alopecurus myosuroides, post-emergence, 360 h, 62 g ai/ha, scale 0 (no effect) to 100 (complete control), 13 to 15 days, read-out: Plant response rating, Blackgrass
  pest or weed control at 62 g/ha: 20%
[4]; Alopecurus myosuroides, post-emergence, 360 h, 125 g ai/ha, visual rating after 13 to 15 days, scale 0 (no effect) to 100 (complete control)
  pest or weed control at 125 g/ha: 30%
[4]; 250 g ai/ha, scale 0 to 100
  Blackgrass plant response rating: 50
Wild oat (Avena fatua); Avena fatua, post-emergence, 31 g ai/ha, scale 0 to 100 (0 no effect, 100 complete control), read-out: Plant response rating, Oat, Wild
  pest or weed control at 31 g/ha: 30%
Wild oat (Avena fatua); Avena fatua, post-emergence, 62 g ai/ha, scale 0 (no effect) to 100 (complete control), 13 to 15 days, read-out: Plant response rating, Oat, Wild
  pest or weed control at 62 g/ha: 50%
Wild oat (Avena fatua); Avena fatua, post-emergence, 125 g ai/ha, visual rating after 13 to 15 days, scale 0 (no effect) to 100 (complete control)
  pest or weed control at 125 g/ha: 50%
Wild oat (Avena fatua); 250 g ai/ha, scale 0 to 100
  Oat, Wild plant response rating: 50
[5]; 250 g ai/ha, scale 0 to 100
  Cocklebur plant response rating: 100
[5]; Xanthium strumarium, post-emergence, 31 g ai/ha, scale 0 to 100 (0 no effect, 100 complete control), read-out: Plant response rating, Cocklebur
  pest or weed control at 31 g/ha: 100%
[5]; Xanthium strumarium, post-emergence, 62 g ai/ha, scale 0 (no effect) to 100 (complete control), 13 to 15 days, read-out: Plant response rating, Cocklebur
  pest or weed control at 62 g/ha: 100%
[5]; Xanthium strumarium, post-emergence, 125 g ai/ha, visual rating after 13 to 15 days, scale 0 (no effect) to 100 (complete control)
  pest or weed control at 125 g/ha: 100%
Kochia (Kochia scoparia); Bassia scoparia, post-emergence, 31 g ai/ha, scale 0 to 100 (0 no effect, 100 complete control), read-out: Plant response rating, Kochia
  pest or weed control at 31 g/ha: 80%
Kochia (Kochia scoparia); Bassia scoparia, post-emergence, 62 g ai/ha, scale 0 (no effect) to 100 (complete control), 13 to 15 days, read-out: Plant response rating, Kochia
  pest or weed control at 62 g/ha: 100%
Kochia (Kochia scoparia); Bassia scoparia, post-emergence, 125 g ai/ha, visual rating after 13 to 15 days, scale 0 (no effect) to 100 (complete control)
  pest or weed control at 125 g/ha: 100%
Kochia (Kochia scoparia); 250 g ai/ha, scale 0 to 100
  Kochia plant response rating: 100
[6]; Chenopodium album, post-emergence, 31 g ai/ha, scale 0 to 100 (0 no effect, 100 complete control), read-out: Plant response rating, Lambsquarters
  pest or weed control at 31 g/ha: 98%
[6]; Chenopodium album, post-emergence, 62 g ai/ha, scale 0 (no effect) to 100 (complete control), 13 to 15 days, read-out: Plant response rating, Lambsquarters
  pest or weed control at 62 g/ha: 100%
[6]; Chenopodium album, post-emergence, 125 g ai/ha, visual rating after 13 to 15 days, scale 0 (no effect) to 100 (complete control)
  pest or weed control at 125 g/ha: 100%
[6]; 250 g ai/ha, scale 0 to 100
  Lambsquarters plant response rating: 100
Soybean (Glycine max); Glycine max, post-emergence, 31 g ai/ha, scale 0 to 100 (0 no effect, 100 complete control), read-out: Plant response rating, Soybean
  plant injury at 31 g/ha: 95%
Soybean (Glycine max); Glycine max, post-emergence, 62 g ai/ha, scale 0 (no effect) to 100 (complete control), 13 to 15 days, read-out: Plant response rating, Soybean
  plant injury at 62 g/ha: 100%
Soybean (Glycine max); Glycine max, post-emergence, 125 g ai/ha, visual rating after 13 to 15 days, scale 0 (no effect) to 100 (complete control)
  plant injury at 125 g/ha: 100%
Soybean (Glycine max); 250 g ai/ha, scale 0 to 100
  Soybean plant response rating: 100
[7]; Amaranthus retroflexus, post-emergence, 31 g ai/ha, scale 0 to 100 (0 no effect, 100 complete control), read-out: Plant response rating, Pigweed
  pest or weed control at 31 g/ha: 100%
[7]; Amaranthus retroflexus, post-emergence, 62 g ai/ha, scale 0 (no effect) to 100 (complete control), 13 to 15 days, read-out: Plant response rating, Pigweed
  pest or weed control at 62 g/ha: 100%
[7]; Amaranthus retroflexus, post-emergence, 125 g ai/ha, visual rating after 13 to 15 days, scale 0 (no effect) to 100 (complete control)
  pest or weed control at 125 g/ha: 100%
[7]; 250 g ai/ha, scale 0 to 100
  Pigweed plant response rating: 100
[8]; Apera spica-venti, post-emergence, 360 h, 31 g ai/ha, scale 0 to 100 (0 no effect, 100 complete control), read-out: Plant response rating, Windgrass
  pest or weed control at 31 g/ha: 50%
[8]; Apera spica-venti, post-emergence, 360 h, 62 g ai/ha, scale 0 (no effect) to 100 (complete control), 13 to 15 days, read-out: Plant response rating, Windgrass
  pest or weed control at 62 g/ha: 55%
[8]; Apera spica-venti, post-emergence, 360 h, 125 g ai/ha, visual rating after 13 to 15 days, scale 0 (no effect) to 100 (complete control)
  pest or weed control at 125 g/ha: 60%
[8]; 250 g ai/ha, scale 0 to 100
  Windgrass plant response rating: 75
[9]; Phalaris minor, post-emergence, 360 h, 31 g ai/ha, scale 0 to 100 (0 no effect, 100 complete control), read-out: Plant response rating, Canarygrass
  pest or weed control at 31 g/ha: 10%
[9]; Phalaris minor, post-emergence, 360 h, 62 g ai/ha, scale 0 (no effect) to 100 (complete control), 13 to 15 days, read-out: Plant response rating, Canarygrass
  pest or weed control at 62 g/ha: 20%
[9]; Phalaris minor, post-emergence, 360 h, 125 g ai/ha, visual rating after 13 to 15 days, scale 0 (no effect) to 100 (complete control)
  pest or weed control at 125 g/ha: 75%
[9]; 250 g ai/ha, scale 0 to 100
  Canarygrass plant response rating: 80
[10]; 250 g ai/ha, scale 0 to 100
  Chickweed plant response rating: 100
[10]; Stellaria media, post-emergence, 360 h, 31 g ai/ha, scale 0 to 100 (0 no effect, 100 complete control), read-out: Plant response rating, Chickweed
  pest or weed control at 31 g/ha: 100%
[10]; Stellaria media, post-emergence, 360 h, 62 g ai/ha, scale 0 (no effect) to 100 (complete control), 13 to 15 days, read-out: Plant response rating, Chickweed
  pest or weed control at 62 g/ha: 100%
[10]; Stellaria media, post-emergence, 360 h, 125 g ai/ha, visual rating after 13 to 15 days, scale 0 (no effect) to 100 (complete control)
  pest or weed control at 125 g/ha: 100%
